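Five concentrations, 48 hours, 96-well plates. GI50 = concentration required for 50% inhibition of growth. TGI: total growth inhibition.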
Legend:
Test in all cases: NCI anticancer screen, dose series, 48 h
NCI/ADR-RES ovarian = test system: NCI/ADR-RES ovarian
PC-3 prostate = test system: PC-3 prostate
COLO 205 colon = test system: COLO 205 colon
M14 melanoma = test system: M14 melanoma
HOP-92 NSCLC = test system: HOP-92 NSCLC
NCI-H460 lung = test system: NCI-H460 lung
SNB-19 CNS = test system: SNB-19 CNS
HCT-116 colon = test system: HCT-116 colon
LOX IMVI melanoma = test system: LOX IMVI melanoma
UO-31 renal = test system: UO-31 renal
HOP-62 NSCLC = test system: HOP-62 NSCLC
UACC-257 melanoma = test system: UACC-257 melanoma
OVCAR-8 ovarian = test system: OVCAR-8 ovarian
HCT-15 colon = test system: HCT-15 colon
OVCAR-3 ovarian = test system: OVCAR-3 ovarian
ACHN renal = test system: ACHN renal
RXF 393 renal = test system: RXF 393 renal
MCF7 breast = test system: MCF7 breast
SK-MEL-28 melanoma = test system: SK-MEL-28 melanoma
SF-268 CNS = test system: SF-268 CNS
NCI-H522 lung = test system: NCI-H522 lung
CAKI-1 renal = test system: CAKI-1 renal
BT-549 breast = test system: BT-549 breast
SR leukemia = test system: SR leukemia
K-562 leukemia = test system: K-562 leukemia
SW-620 colon = test system: SW-620 colon
IGROV1 ovarian = test system: IGROV1 ovarian
SK-MEL-2 melanoma = test system: SK-MEL-2 melanoma
HS 578T breast = test system: HS 578T breast
U251 CNS = test system: U251 CNS
TK-10 renal = test system: TK-10 renal
SF-295 CNS = test system: SF-295 CNS
CCRF-CEM leukemia = test system: CCRF-CEM leukemia
SF-539 CNS = test system: SF-539 CNS
A549 NSCLC = test system: A549 NSCLC
OVCAR-5 ovarian = test system: OVCAR-5 ovarian
A498 renal = test system: A498 renal
SN12C renal = test system: SN12C renal
SK-MEL-5 melanoma = test system: SK-MEL-5 melanoma
T-47D breast = test system: T-47D breast
HT29 colon = test system: HT29 colon
NCI-H23 lung = test system: NCI-H23 lung
EKVX NSCLC = test system: EKVX NSCLC
MDA-MB-435 = test system: MDA-MB-435
HL-60(TB) leukemia = test system: HL-60(TB) leukemia
RPMI-8226 leukemia = test system: RPMI-8226 leukemia
MDA-MB-231 breast = test system: MDA-MB-231 breast
DU-145 prostate = test system: DU-145 prostate
HCC-2998 colon = test system: HCC-2998 colon
786-0 renal = test system: 786-0 renal
UACC-62 melanoma = test system: UACC-62 melanoma
KM12 colon = test system: KM12 colon
MOLT-4 leukemia = test system: MOLT-4 leukemia
NCI-H226 lung = test system: NCI-H226 lung
SK-OV-3 ovarian = test system: SK-OV-3 ovarian
OVCAR-4 ovarian = test system: OVCAR-4 ovarian
MALME-3M melanoma = test system: MALME-3M melanoma
SNB-75 CNS = test system: SNB-75 CNS

## Cc1sc(NC2=NC(=O)/C(=C\c3ccccc3)S2)nc1-c1nc(NC2=NC(=O)/C(=C\c3ccccc3)S2)sc1C
NCI/ADR-RES ovarian
  GI50: 14.4 µM
  TGI: 43.8 µM
PC-3 prostate
  GI50: 16.7 µM
  TGI: > 50 µM
COLO 205 colon
  GI50: 26.4 µM
  TGI: > 50 µM
M14 melanoma
  GI50: 9.51 µM
  TGI: 23.6 µM
HOP-92 NSCLC
  GI50: 12 µM
  TGI: > 36.1 µM
NCI-H460 lung
  GI50: 15.5 µM
  TGI: > 50 µM
SNB-19 CNS
  GI50: 26 µM
  TGI: > 50 µM
HCT-116 colon
  GI50: 9.31 µM
  TGI: 24.6 µM
LOX IMVI melanoma
  GI50: 11.2 µM
  TGI: 35.3 µM
UO-31 renal
  GI50: 24.9 µM
  TGI: > 44.4 µM
HOP-62 NSCLC
  GI50: 8.71 µM
  TGI: 22.9 µM
UACC-257 melanoma
  GI50: 13.7 µM
  TGI: > 38.7 µM
OVCAR-8 ovarian
  GI50: 16.5 µM
  TGI: > 39.6 µM
HCT-15 colon
  GI50: 13 µM
  TGI: > 39.6 µM
OVCAR-3 ovarian
  GI50: 9.84 µM
  TGI: 29.1 µM
ACHN renal
  GI50: 12.4 µM
  TGI: > 32.6 µM
RXF 393 renal
  GI50: > 24.2 µM
  TGI: > 40.2 µM
MCF7 breast
  GI50: 16.2 µM
  TGI: > 50 µM
SK-MEL-28 melanoma
  GI50: 25.3 µM
  TGI: > 50 µM
SF-268 CNS
  GI50: 14.7 µM
  TGI: 49.4 µM
NCI-H522 lung
  GI50: 22.3 µM
  TGI: > 50 µM
CAKI-1 renal
  GI50: 12.1 µM
  TGI: 33.2 µM
BT-549 breast
  GI50: 18.4 µM
  TGI: > 50 µM
SR leukemia
  GI50: 7.49 µM
  TGI: 21.4 µM
K-562 leukemia
  GI50: 13.2 µM
  TGI: > 35 µM
SW-620 colon
  GI50: 16.7 µM
  TGI: > 50 µM
IGROV1 ovarian
  GI50: 23 µM
  TGI: > 50 µM
SK-MEL-2 melanoma
  GI50: > 35.1 µM
  TGI: > 50 µM
HS 578T breast
  GI50: 3.13 µM
  TGI: > 50 µM
U251 CNS
  GI50: 9.27 µM
  TGI: 22.9 µM
TK-10 renal
  GI50: 7.19 µM
  TGI: 22.7 µM
SF-295 CNS
  GI50: 13.2 µM
  TGI: > 40.7 µM
CCRF-CEM leukemia
  GI50: 9.41 µM
  TGI: 35.6 µM
SF-539 CNS
  GI50: 17.9 µM
  TGI: > 34.1 µM
A549 NSCLC
  GI50: 15.5 µM
  TGI: > 39.6 µM
OVCAR-5 ovarian
  GI50: 26.2 µM
  TGI: > 50 µM
A498 renal
  GI50: 12.1 µM
  TGI: 30.7 µM
SN12C renal
  GI50: 11.4 µM
  TGI: 29.8 µM
SK-MEL-5 melanoma
  GI50: 13.1 µM
  TGI: > 34.5 µM
T-47D breast
  GI50: 28.2 µM
  TGI: > 50 µM
HT29 colon
  GI50: 23.3 µM
  TGI: > 50 µM
NCI-H23 lung
  GI50: 15.4 µM
  TGI: > 41.4 µM
EKVX NSCLC
  GI50: 0.0627 µM
  TGI: 1.94 µM
MDA-MB-435
  GI50: 16.3 µM
  TGI: > 50 µM
HL-60(TB) leukemia
  GI50: 18 µM
  TGI: > 50 µM
RPMI-8226 leukemia
  GI50: 8.45 µM
  TGI: 31.6 µM
MDA-MB-231 breast
  GI50: 10.2 µM
  TGI: 27 µM
DU-145 prostate
  GI50: 0.382 µM
  TGI: > 20.6 µM
HCC-2998 colon
  GI50: 14.2 µM
  TGI: 39.9 µM
786-0 renal
  GI50: 11.4 µM
  TGI: 33.4 µM
UACC-62 melanoma
  GI50: 7.45 µM
  TGI: 24 µM
KM12 colon
  GI50: 11.1 µM
  TGI: > 37.9 µM
MOLT-4 leukemia
  GI50: 24.2 µM
  TGI: > 50 µM
NCI-H226 lung
  GI50: 12.4 µM
  TGI: > 32.8 µM

## CC(C)n1c(=O)n(C)c2cnc3cc(F)c(-c4ccc(OCCCN5CCCCC5)nc4)cc3c21
NCI/ADR-RES ovarian
  GI50: 12.4 µM
  TGI: 81.3 µM
PC-3 prostate
  GI50: 6.94 µM
  TGI: 37.1 µM
COLO 205 colon
  GI50: 7.39 µM
  TGI: 23.4 µM
M14 melanoma
  GI50: 14.6 µM
  TGI: 31.6 µM
HOP-92 NSCLC
  GI50: 1.2 µM
  TGI: 9.36 µM
NCI-H460 lung
  GI50: 11.3 µM
  TGI: 29.4 µM
SK-OV-3 ovarian
  GI50: 10.8 µM
  TGI: 73.8 µM
SNB-19 CNS
  GI50: 17.4 µM
  TGI: 77.5 µM
HCT-116 colon
  GI50: 10.9 µM
  TGI: 27.4 µM
LOX IMVI melanoma
  GI50: 4.13 µM
  TGI: 16.6 µM
UO-31 renal
  GI50: 3.74 µM
  TGI: 16.2 µM
HOP-62 NSCLC
  GI50: 4.99 µM
  TGI: 28.3 µM
UACC-257 melanoma
  GI50: 16.4 µM
  TGI: 36.8 µM
OVCAR-8 ovarian
  GI50: 14.9 µM
  TGI: > 100 µM
HCT-15 colon
  GI50: 11.1 µM
  TGI: 31.5 µM
OVCAR-3 ovarian
  GI50: 13.7 µM
  TGI: 49.5 µM
ACHN renal
  GI50: 16.2 µM
  TGI: 76.8 µM
MCF7 breast
  GI50: 7.46 µM
  TGI: 21.6 µM
SK-MEL-28 melanoma
  GI50: 13.5 µM
  TGI: 32.4 µM
SF-268 CNS
  GI50: 11.9 µM
  TGI: 40.2 µM
NCI-H522 lung
  GI50: 18.6 µM
  TGI: 49.6 µM
CAKI-1 renal
  GI50: 22.9 µM
  TGI: > 100 µM
BT-549 breast
  GI50: 10.1 µM
  TGI: 28.4 µM
SR leukemia
  GI50: 5.76 µM
  TGI: 32.2 µM
SW-620 colon
  GI50: 14.3 µM
  TGI: 42.3 µM
IGROV1 ovarian
  GI50: 8.18 µM
  TGI: 41.9 µM
SK-MEL-2 melanoma
  GI50: 14.4 µM
  TGI: 30.2 µM
HS 578T breast
  GI50: 3.33 µM
  TGI: 18.1 µM
OVCAR-4 ovarian
  GI50: 9.08 µM
  TGI: 56.5 µM
U251 CNS
  GI50: 13.5 µM
  TGI: 37.6 µM
TK-10 renal
  GI50: 11.3 µM
  TGI: 45.4 µM
SF-295 CNS
  GI50: 3.99 µM
  TGI: 16.4 µM
CCRF-CEM leukemia
  GI50: 9.9 µM
  TGI: 31.8 µM
SF-539 CNS
  GI50: 8.38 µM
  TGI: 22.9 µM
A549 NSCLC
  GI50: 16.3 µM
  TGI: 63.9 µM
OVCAR-5 ovarian
  GI50: 15.7 µM
  TGI: 55.7 µM
A498 renal
  GI50: 3.78 µM
  TGI: 14 µM
SN12C renal
  GI50: 7.14 µM
  TGI: 42.8 µM
SK-MEL-5 melanoma
  GI50: 6.41 µM
  TGI: 19.1 µM
T-47D breast
  GI50: 9.65 µM
  TGI: 38.8 µM
HT29 colon
  GI50: 8.5 µM
  TGI: 37.2 µM
NCI-H23 lung
  GI50: 16.5 µM
  TGI: > 100 µM
MALME-3M melanoma
  GI50: 10.6 µM
  TGI: 23.4 µM
EKVX NSCLC
  GI50: 8.19 µM
  TGI: 48.9 µM
MDA-MB-435
  GI50: 17 µM
  TGI: 71.4 µM
HL-60(TB) leukemia
  GI50: 12.7 µM
  TGI: 38.2 µM
RPMI-8226 leukemia
  GI50: 3.22 µM
  TGI: 14.6 µM
MDA-MB-231 breast
  GI50: 11.4 µM
  TGI: 27.6 µM
DU-145 prostate
  GI50: 17.7 µM
  TGI: > 100 µM
HCC-2998 colon
  GI50: 23.3 µM
  TGI: > 100 µM
SNB-75 CNS
  GI50: 4.24 µM
  TGI: 18.1 µM
786-0 renal
  GI50: 12.9 µM
  TGI: 37.9 µM
UACC-62 melanoma
  GI50: 14.1 µM
  TGI: 29.3 µM
KM12 colon
  GI50: 4.19 µM
  TGI: 28.8 µM
MOLT-4 leukemia
  GI50: 5.47 µM
  TGI: 41.5 µM
NCI-H226 lung
  GI50: 4.99 µM
  TGI: 24.4 µM
